Assay results from patent EP0195097A1, “Arachidonic acid analogues, processes for their preparation and their use in medicine” (BEECHAM GROUP PLC, priority 1985, dated 1986).

How the values were obtained:
cyclo-oxygenase = biological target: T1, cyclo-oxygenase (Bos taurus, UniProt O62664); assay: Cyclo-oxygenase screen; format: biochemical; conditions: 50µM compound; bovine seminal vesicle microsomes; decrease in prostaglandin formation
T1 construct: comprising 0.96mg lyophilised bovine seminal vesicle microsomes; from tissue; host or cells: bovine seminal vesicle microsomes (lyophilised)
T1 sequence (O62664 25-600): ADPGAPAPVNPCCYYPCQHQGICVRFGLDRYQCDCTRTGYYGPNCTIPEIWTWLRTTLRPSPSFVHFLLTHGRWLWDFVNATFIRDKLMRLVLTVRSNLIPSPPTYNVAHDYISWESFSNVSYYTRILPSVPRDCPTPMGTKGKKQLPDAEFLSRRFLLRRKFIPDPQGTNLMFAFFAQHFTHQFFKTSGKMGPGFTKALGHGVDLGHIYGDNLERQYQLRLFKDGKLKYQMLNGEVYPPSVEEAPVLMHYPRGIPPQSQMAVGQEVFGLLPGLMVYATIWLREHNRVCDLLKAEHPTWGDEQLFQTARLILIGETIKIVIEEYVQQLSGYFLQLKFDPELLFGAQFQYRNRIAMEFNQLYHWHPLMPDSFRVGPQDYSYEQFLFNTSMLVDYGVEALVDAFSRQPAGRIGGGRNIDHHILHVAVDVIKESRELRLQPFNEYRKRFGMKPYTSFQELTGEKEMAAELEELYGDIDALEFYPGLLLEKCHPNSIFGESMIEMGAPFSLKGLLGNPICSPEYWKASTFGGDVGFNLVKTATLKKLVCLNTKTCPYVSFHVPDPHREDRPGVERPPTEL
Experimental: 2) Cyclo-oxygenase Screen
Compounds were preincubated with the incubation constitutents for 5 min at 37 °C before the reaction was started by the addition of the arachidonic acid. The reaction was continued at 37 °C for 2 min, then stopped by placing the incubations on ice and the addition of 1.2ml 0.2M citric acid. Unmetabolised substrate and prostaglandin products were extracted in ethyl acetate (2 x 4ml), the combined extracts washed with 0.8ml water, and separated by thin-layer chromatography (Kieselgel GF254 plates in ethyl acetate:acetone:glacial acetic acid, 90:10:1, v/v). Recovery was 65-80%. The regions on the thin-layer chromatography plate that chromatographed with authentic arachidonic acid or prostaglandins E2 and F2a (Rf's 0.70, 0.28 and 0.16 respectively) were scraped and the radioactivity in each determined by liquid scintillation counting with a correction for quenching being made by the external standard-channels ratio method. Inhibition of cyclo-oxygenase activity was calculated from the decrease in prostaglandin formation. Each compound concentration was tested in triplicate and the 50% inhibitory concentration, if determined, was calculated by linear regression from the inhibitory data at, at least three different compound concentrations.

5-Lipoxygenase enzyme = biological target: T2, 5-Lipoxygenase enzyme (Rattus norvegicus, UniProt P12527); assay: RBL-1 5-lipoxygenase screen; format: biochemical; conditions: 10,000g supernatant from RBL-1 cells; for inhibition at 50 µM: 50µM compound (cells marked *, footnote: inhibition at 50µM); for inhibition at 20 µM: 20µM compound, decrease in formation of 5-HETE and 5,12-diHETE relative to control
T2 construct: 5-Lipoxygenase enzyme was prepared as a 10,000g supernatant from RBL-1 cells; endogenous in cells; host or cells: RBL-1 cells (10,000g supernatant)
T2 sequence (P12527 1-673): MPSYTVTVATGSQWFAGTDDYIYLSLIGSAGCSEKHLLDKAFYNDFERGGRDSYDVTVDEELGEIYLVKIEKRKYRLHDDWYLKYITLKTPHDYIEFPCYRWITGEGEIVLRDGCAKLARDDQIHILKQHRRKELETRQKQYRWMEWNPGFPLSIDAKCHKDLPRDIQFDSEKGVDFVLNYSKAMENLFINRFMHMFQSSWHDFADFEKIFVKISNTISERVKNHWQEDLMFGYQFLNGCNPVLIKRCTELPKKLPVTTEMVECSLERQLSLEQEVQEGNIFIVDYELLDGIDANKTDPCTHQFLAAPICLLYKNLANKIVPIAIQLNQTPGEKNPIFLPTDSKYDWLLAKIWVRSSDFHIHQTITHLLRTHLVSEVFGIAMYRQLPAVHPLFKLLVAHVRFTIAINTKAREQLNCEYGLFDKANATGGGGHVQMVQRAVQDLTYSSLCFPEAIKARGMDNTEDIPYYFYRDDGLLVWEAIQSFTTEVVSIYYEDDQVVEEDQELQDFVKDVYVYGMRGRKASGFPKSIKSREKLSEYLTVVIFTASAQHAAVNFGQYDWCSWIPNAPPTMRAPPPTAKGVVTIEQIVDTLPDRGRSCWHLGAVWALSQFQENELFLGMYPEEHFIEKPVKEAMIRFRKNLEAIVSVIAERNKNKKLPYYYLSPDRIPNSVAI
Experimental: 1) RBL-1 5-LIPOXYGENASE SCREEN
5-Lipoxygenase enzyme was prepared as a 10,000g supernatant from RBL-1 cells by the method of Jakschik (Jakschik, B.A., F.F. Sun, L.M.Lee, and M.M. Steinhoff, 1980, Biochem. Biophys. Res.Comm. 95, 103). The 10,000g supernatant was diluted with homogenization buffer to the equivalent of 1.5 - 2.5 x 10^7 cells. ml.-l and made 2mM with respect to CaCl2. Aliquots of 0.5ml were then dispensed into tubes, and incubated at 29 °C with 5pl ethanol or compound in ethanol at the desired concentration for 2min. Then [1-^14C] arachidonic acid was added in buffer to give a final concentration of 6.3µM and 0.2pCi per incubation, and the reaction continued at 29 °C for 2min. The reaction was terminated by adding lml of acetone and cooling on ice, 0.5ml of ice-cold saline and 100pl of 2M formic acid were added, and the mixture was extracted with 2 x 2ml of chloroform. The extract was stored under N2 at -20 °C until analysis by chromatography. Activity was measured as the percentage of total radioactivity found in 5-HETE and 5,12-diHETE, and inhibition calculated as the decrease in formation of the sum of these two species in compound-treated incubates relative to control incubations.

inhibition at 50 µM (cyclo-oxygenase)	inhibition at 50 µM (5-Lipoxygenase enzyme)	inhibition at 20 µM (5-Lipoxygenase enzyme)	SMILES
70%	60%		CCCCCCCCCCCC#Cc1ccccc1C=C(C(=O)O)C(=O)OCC [Example 24]
59%	55%		CCCCCCCCCCCC#Cc1ccccc1C=C(C(=O)O)C(=O)O [Example 25]
59%			CCCCCCCCCCCC#Cc1ccc(C=C(C(=O)O)C(=O)O)cc1 [Example 27]
76%		63%	CCCCCCCCCCCC#Cc1ccccc1CC(C(=O)O)C(=O)O [Example 28]
		67%	CCCCCCCCCCC/C=C\c1ccccc1C=C(C(=O)O)C(=O)O [Example 29]
		15%	CCCCCCC#Cc1ccc(C=C(C(=O)O)C(=O)OC)cc1 [Example 49]
		16%	CCCCCCC#Cc1ccc(C=C(C(=O)O)C(=O)O)cc1 [Example 50]
		25%	CCCCCCCCCCCC#Cc1cccc(C=C(C(=O)O)C(=O)O)c1 [Example 51]
		51%	CCCCCCCCCCCC#Cc1cccc(CC(C(=O)O)C(=O)O)c1 [Example 52]
		63%	CCCCCCC#Cc1ccccc1OCCCC(C(=O)O)C(=O)OCC (centres unmarked) [Example 55]
	52%		CCCCCCC#Cc1cccc(OCCCC(C(=O)O)C(=O)OCC)c1 (centres unmarked) [Example 56]
		54%	CCCCCCC#Cc1ccccc1OCCCC(C(=O)O)C(=O)O [Example 57]
38%	45%		CCCCCCC#Cc1cccc(OCCCC(C(=O)O)C(=O)O)c1 [Example 58]
		82%	CCCCCCCCCCC/C=C\c1cccc(C=C(C(=O)O)C(=O)O)c1 [Example 63]
		49%	CCCCCC/C=C\c1ccc(C=C(C(=O)O)C(=O)O)cc1 [Example 64]
		84%	CCCCCCCCCCC/C=C\c1cccc(CC(C(=O)O)C(=O)O)c1 [Example 66]
40%		62.5%	CCCCCC/C=C\c1cccc(OCCCC(C(=O)O)C(=O)OCC)c1 (centres unmarked) [Example 68]
		44%	CCCCCC/C=C\c1cccc(OCCCC(C(=O)O)C(=O)O)c1 [Example 69]
